Measured values from ChEMBL document CHEMBL2216751, “PI3Kδ and PI3Kγ as targets for autoimmune and inflammatory diseases” (J Med Chem, 2012).

Experiments:
Mus musculus [1] = assay: Antiinflammatory activity in ovalbumin-sensitized mouse asthma model assessed as reduction in airway-hyper responsiveness at 0.4 % administered as aerosolized formulation for 12 to 14 days; format: functional; set-up: scale not given: the % may be the effect or the level left
Mus musculus [2] = assay: Antiinflammatory activity in LPS-induced COPD BALB/c mouse model assessed as reduction in pulmonary neutrophilia at 0.4 % administered as aerosolized formulation; format: functional; set-up: scale not given: the % may be the effect or the level left
Mus musculus [3] = assay: Antiinflammatory activity in cigarette smoking-induced COPD BALB/c mouse model assessed as reduction in pulmonary neutrophilia at 0.4 % administered as aerosolized formulation; format: functional; set-up: scale not given: the % may be the effect or the level left
Mus musculus [4] = assay: Antiinflammatory activity in ovalbumin-sensitized mouse asthma model assessed as reduction in lung eosinophils at 0.4 % administered as aerosolized formulation for 12 to 14 days; format: functional; set-up: scale not given: the % may be the effect or the level left
Rattus norvegicus [5] = assay: Cardioprotective activity in Sprague-Dawley rat MI model assessed as reduction in coronary artery occlusion at 0.05 to 5 mg/kg, iv administered as single bolus dose post 60 mins of reperfusion measured after 24 hrs; format: functional; set-up: scale not given: the % may be the effect or the level left; details: dose mg/kg 0.05-5
Rattus norvegicus [6] = assay: Antiinflammatory activity in Sprague-Dawley rat assessed as reduction in PAF/dextran-induced hind paw edema at 5 mg/kg; format: functional; set-up: scale not given: the % may be the effect or the level left
Sus scrofa = assay: Cardioprotective activity in pig MI model assessed as reduction in coronary artery occlusion at 0.5 mg/kg, iv administered as single bolus dose post 90 mins of reperfusion measured after 24 hrs; format: functional; set-up: scale not given: the % may be the effect or the level left
Mus musculus [7] = organism: Mus musculus; assay: Antiarthritic activity in adjuvant-induced rheumatoid arthritis mouse model assessed as reduction in disease clinical score; format: functional; set-up: scale not given: the % may be the effect or the level left
[8] = molecular target: T1, Phosphatidylinositol 4,5-bisphosphate 3-kinase catalytic subunit delta isoform (Homo sapiens, UniProt O00329); assay: Inhibition of PI3Kdelta using phosphatidylinositol as substrate by gamma33P[ATP] incorporation assay
T1 sequence (O00329 whole entry): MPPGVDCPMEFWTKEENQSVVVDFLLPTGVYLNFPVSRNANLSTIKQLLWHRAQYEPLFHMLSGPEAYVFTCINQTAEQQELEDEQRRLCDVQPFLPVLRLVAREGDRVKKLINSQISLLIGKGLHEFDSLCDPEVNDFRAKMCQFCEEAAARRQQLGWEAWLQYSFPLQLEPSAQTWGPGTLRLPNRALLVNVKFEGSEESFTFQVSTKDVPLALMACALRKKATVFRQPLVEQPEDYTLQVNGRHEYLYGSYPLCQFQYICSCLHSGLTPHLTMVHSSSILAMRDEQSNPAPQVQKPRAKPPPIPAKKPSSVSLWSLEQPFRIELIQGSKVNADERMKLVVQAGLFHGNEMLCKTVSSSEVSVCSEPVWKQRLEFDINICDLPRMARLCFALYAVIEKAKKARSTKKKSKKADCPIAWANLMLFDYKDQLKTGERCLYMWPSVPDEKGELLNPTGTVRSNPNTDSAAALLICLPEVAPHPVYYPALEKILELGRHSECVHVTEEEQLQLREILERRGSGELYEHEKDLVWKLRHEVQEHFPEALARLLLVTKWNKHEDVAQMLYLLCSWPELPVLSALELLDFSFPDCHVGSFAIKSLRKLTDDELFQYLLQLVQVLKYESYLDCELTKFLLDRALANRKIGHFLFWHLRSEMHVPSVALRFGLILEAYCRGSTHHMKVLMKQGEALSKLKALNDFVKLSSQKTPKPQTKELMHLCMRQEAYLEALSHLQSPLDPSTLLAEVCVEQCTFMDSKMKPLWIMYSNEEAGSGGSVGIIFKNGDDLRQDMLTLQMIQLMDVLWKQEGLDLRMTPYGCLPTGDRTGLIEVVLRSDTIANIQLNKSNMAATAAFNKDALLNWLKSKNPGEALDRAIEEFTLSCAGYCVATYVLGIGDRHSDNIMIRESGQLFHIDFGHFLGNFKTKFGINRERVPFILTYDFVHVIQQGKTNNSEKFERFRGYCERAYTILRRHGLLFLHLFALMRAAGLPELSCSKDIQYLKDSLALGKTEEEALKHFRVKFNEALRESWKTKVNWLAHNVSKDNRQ

[9] = molecular target: T2, Phosphatidylinositol 4,5-bisphosphate 3-kinase catalytic subunit delta isoform (Mus musculus, UniProt O35904); assay: Inhibition of PI3Kdelta-mediated AKT phosphorylation in mouse Raw 264.7 cells by immunoassay; format: cell-based
T2 sequence (O35904 whole entry): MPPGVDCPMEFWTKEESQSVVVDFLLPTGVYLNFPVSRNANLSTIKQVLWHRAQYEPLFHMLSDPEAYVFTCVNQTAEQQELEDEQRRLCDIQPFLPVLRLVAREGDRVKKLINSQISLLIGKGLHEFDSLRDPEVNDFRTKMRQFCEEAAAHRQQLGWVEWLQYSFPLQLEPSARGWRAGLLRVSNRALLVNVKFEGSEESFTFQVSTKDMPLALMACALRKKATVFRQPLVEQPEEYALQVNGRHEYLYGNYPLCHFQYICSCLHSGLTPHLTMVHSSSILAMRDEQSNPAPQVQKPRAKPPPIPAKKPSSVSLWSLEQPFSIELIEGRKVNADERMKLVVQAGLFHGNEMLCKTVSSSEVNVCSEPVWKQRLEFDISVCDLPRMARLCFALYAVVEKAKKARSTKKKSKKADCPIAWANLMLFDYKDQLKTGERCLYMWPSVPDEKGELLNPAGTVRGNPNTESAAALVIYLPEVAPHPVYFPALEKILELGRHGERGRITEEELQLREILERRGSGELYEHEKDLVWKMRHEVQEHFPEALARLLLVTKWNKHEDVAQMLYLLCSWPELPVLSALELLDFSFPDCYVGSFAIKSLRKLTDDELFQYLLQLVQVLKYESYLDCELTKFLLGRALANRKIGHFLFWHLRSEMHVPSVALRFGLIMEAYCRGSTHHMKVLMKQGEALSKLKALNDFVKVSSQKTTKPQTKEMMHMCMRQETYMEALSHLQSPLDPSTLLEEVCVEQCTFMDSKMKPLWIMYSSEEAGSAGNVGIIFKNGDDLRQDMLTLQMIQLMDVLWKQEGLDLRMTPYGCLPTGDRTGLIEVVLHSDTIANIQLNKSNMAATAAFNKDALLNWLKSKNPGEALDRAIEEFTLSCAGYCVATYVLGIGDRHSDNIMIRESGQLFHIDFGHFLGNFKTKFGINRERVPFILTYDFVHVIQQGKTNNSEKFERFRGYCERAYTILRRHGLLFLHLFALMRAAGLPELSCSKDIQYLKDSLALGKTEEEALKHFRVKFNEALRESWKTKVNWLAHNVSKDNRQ

[10] = molecular target: T1, Phosphatidylinositol 4,5-bisphosphate 3-kinase catalytic subunit delta isoform; details: read-out: IC50
[11] = molecular target: T1, Phosphatidylinositol 4,5-bisphosphate 3-kinase catalytic subunit delta isoform; assay: Inhibition of PI3Kdelta assessed as inhibition of H2O2-induced AKT phosphorylation by cell-based assay
[12] = molecular target: T1, Phosphatidylinositol 4,5-bisphosphate 3-kinase catalytic subunit delta isoform; assay: Inhibition of PI3Kdelta in human PBMC assessed as inhibition of anti-IgM-induced AKT phosphorylation by FACS analysis

Nc1nc(N)c2nc(-c3cccc(O)c3)c(-c3cccc(O)c3)nc2n1 [TG100-115]
Activity (Mus musculus [1]): 50%
Activity (Mus musculus [2]): 42%
Activity (Mus musculus [3]): >=81%
Activity (Mus musculus [4]): 79%
Activity (Rattus norvegicus [5]): >=40%
Activity (Rattus norvegicus [6]): >=62%
Activity (Sus scrofa): 35%

O=C1NC(=O)/C(=C/c2ccc3nccnc3c2)S1
Activity (Mus musculus [7]): 40%

O=c1cc(N2CCOCC2)oc2c(-c3ccccc3)cccc12 [LY-294002]
IC50 [8]: 1050 nM

O=C1NC(=O)/C(=C/c2ccc3ncnc(N4CCC(C(F)(F)F)CC4)c3n2)S1
IC50 [9]: < 10 nM
IC50 [10]: 6 nM

C#Cc1cccc2nc(Cn3nc(-c4cccc(O)c4)c4c(N)ncnc43)n(Cc3cccc(OC)c3)c(=O)c12
IC50 [11]: 570 nM

COc1cc(Nc2nc3ccccc3nc2NS(=O)(=O)c2ccc(CN(C)C)cc2)cc(OC)c1
IC50 [12]: 16 nM
